Test results as given in the supplement of paper PMC11451515.

Test system: NOMO1
Assay: cell viability relative to DMSO control; higher = less cytotoxic
Conditions: 48 h
How it was run: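 Library compounds in DMSO were pin-dosed into 1536-well plates (5 μl) holding NOMO1 or SEM (500 cells/well) or P12-Ichikawa (1000 cells/well) leukemia cells, across an 11-point threefold series of 47 μM to 0.79 nM. Each cell line had been adapted for at least four passages in each medium. CellTiter-Glo One luminescence was read after 48 h at 37°C. Viability is the per-plate percentage relative to DMSO wells, with cell-free wells as background.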

[1] = HPLM + 10% dialyzed FBS, 0.000781 µM
[2] = HPLM + 10% dialyzed FBS, 0.00234 µM
[3] = HPLM + 10% dialyzed FBS, 0.00702 µM
[4] = HPLM + 10% dialyzed FBS, 0.0211 µM
[5] = HPLM + 10% dialyzed FBS, 0.0632 µM
[6] = HPLM + 10% dialyzed FBS, 0.19 µM
[7] = HPLM + 10% dialyzed FBS, 0.569 µM
[8] = HPLM + 10% dialyzed FBS, 1.71 µM
[9] = HPLM + 10% dialyzed FBS, 5.12 µM
[10] = HPLM + 10% dialyzed FBS, 15.4 µM
[11] = HPLM + 10% dialyzed FBS, 46.1 µM
[12] = RPMI 5 mM glucose + 10% FBS, 0.000781 µM
[13] = RPMI 5 mM glucose + 10% FBS, 0.00234 µM
[14] = RPMI 5 mM glucose + 10% FBS, 0.00702 µM
[15] = RPMI 5 mM glucose + 10% FBS, 0.0211 µM
[16] = RPMI 5 mM glucose + 10% FBS, 0.0632 µM
[17] = RPMI 5 mM glucose + 10% FBS, 0.19 µM
[18] = RPMI 5 mM glucose + 10% FBS, 0.569 µM
[19] = RPMI 5 mM glucose + 10% FBS, 1.71 µM
[20] = RPMI 5 mM glucose + 10% FBS, 5.12 µM
[21] = RPMI 5 mM glucose + 10% FBS, 15.4 µM
[22] = RPMI 5 mM glucose + 10% FBS, 46.1 µM
[23] = RPMI 5 mM glucose + 10% dialyzed FBS, 0.000781 µM
[24] = RPMI 5 mM glucose + 10% dialyzed FBS, 0.00234 µM
[25] = RPMI 5 mM glucose + 10% dialyzed FBS, 0.00702 µM
[26] = RPMI 5 mM glucose + 10% dialyzed FBS, 0.0211 µM
[27] = RPMI 5 mM glucose + 10% dialyzed FBS, 0.0632 µM
[28] = RPMI 5 mM glucose + 10% dialyzed FBS, 0.19 µM
[29] = RPMI 5 mM glucose + 10% dialyzed FBS, 0.569 µM
[30] = RPMI 5 mM glucose + 10% dialyzed FBS, 1.71 µM
[31] = RPMI 5 mM glucose + 10% dialyzed FBS, 5.12 µM
[32] = RPMI 5 mM glucose + 10% dialyzed FBS, 15.4 µM
[33] = RPMI 5 mM glucose + 10% dialyzed FBS, 46.1 µM

| Compound | cell viability [1] [%] | cell viability [2] [%] | cell viability [3] [%] | cell viability [4] [%] | cell viability [5] [%] | cell viability [6] [%] | cell viability [7] [%] | cell viability [8] [%] | cell viability [9] [%] | cell viability [10] [%] | cell viability [11] [%] | cell viability [12] [%] | cell viability [13] [%] | cell viability [14] [%] | cell viability [15] [%] | cell viability [16] [%] | cell viability [17] [%] | cell viability [18] [%] | cell viability [19] [%] | cell viability [20] [%] | cell viability [21] [%] | cell viability [22] [%] | cell viability [23] [%] | cell viability [24] [%] | cell viability [25] [%] | cell viability [26] [%] | cell viability [27] [%] | cell viability [28] [%] | cell viability [29] [%] | cell viability [30] [%] | cell viability [31] [%] | cell viability [32] [%] | cell viability [33] [%] |
| --- | --- | --- | --- | --- | --- | --- | --- | --- | --- | --- | --- | --- | --- | --- | --- | --- | --- | --- | --- | --- | --- | --- | --- | --- | --- | --- | --- | --- | --- | --- | --- | --- | --- |
| Cc1cnc(Nc2cccc(CN3CCOCC3)c2)nc1Nc1cccc([S+](=O)([O-])NC(C)(C)C)c1 | 87.9 | 99.6 | 100 | 96.4 | 107 | 108 | 104 | 97.8 | 61.5 | 100 | 84.1 | 79.8 | 85.1 | 85.4 | 94.8 | 83.8 | 78.1 | 80.4 | 75.2 | 35.1 | 86.3 | 85.5 | 84 | 96.7 | 86.2 | 90.7 | 88 | 98.6 | 93.6 | 85.1 | 43.5 | 90.7 | 87.3 |
| C#CCC(Cc1cnc2nc(N)nc(N)c2n1)c1ccc(C(=O)N[C@@H](CCC(=O)O)C(=O)O)cc1 (stereo partly drawn) | 124 | 114 | 130 | 128 | 93.6 | 52 | 45.8 | 49.4 | 45.1 | 54.7 | 49.7 | 127 | 122 | 122 | 123 | 114 | 97.7 | 73.9 | 77.1 | 78.4 | 72.4 | 74.9 | – | – | – | – | – | – | – | – | – | – | – |
| COc1cccc(N(C)C(=S)Oc2ccc3c(c2)CCCC3)n1 | 93.3 | 95.6 | 118 | 89.1 | 111 | 102 | 101 | 110 | 108 | 102 | 99.6 | 85.4 | 88.1 | 87 | 82.2 | 103 | 90.8 | 91 | 88.1 | 103 | 92.2 | 105 | 82.3 | 98.9 | 94 | 84 | 99.5 | 97.7 | 103 | 94.2 | 105 | 108 | 101 |
| CO[C@H]1C[C@@H]2CC[C@@H](C)[C@@](O)(O2)C(=O)C(=O)N2CCCC[C@H]2C(=O)O[C@H]([C@@H](C)C[C@@H]2CC[C@@H](O)[C@H](OC)C2)CC(=O)[C@H](C)/C=C(\C)[C@@H](O)[C@@H](OC)C(=O)[C@H](C)C[C@H](C)/C=C/C=C/C=C/1C | 106 | 110 | 112 | 91 | 95.3 | 112 | 103 | 104 | 81.6 | 88.7 | 81.5 | 113 | 116 | 128 | 136 | 136 | 109 | 113 | 118 | 97.3 | 111 | 103 | 112 | 116 | 121 | 106 | 108 | 117 | 111 | 115 | 128 | 105 | 99.9 |
| c1ccc2c(CN3CCNCC3)cccc2c1 | 99.6 | 113 | 124 | 106 | 112 | 121 | 113 | 112 | 104 | 99.7 | 93.7 | 103 | 124 | 115 | 117 | 117 | 126 | 115 | 133 | 110 | 99.9 | 51.6 | 108 | 113 | 106 | 117 | 115 | 122 | 129 | 122 | 116 | 91.7 | 64.9 |
| COc1cc(N2CCC(N3CCN(C)CC3)CC2)ccc1Nc1ncc(Cl)c(Nc2ccccc2[S+](=O)([O-])C(C)C)n1 | 69.2 | 80 | 98.6 | 118 | 147 | 124 | 130 | 65.1 | 55.6 | 38.7 | 17.1 | 87.2 | 73.3 | 125 | 136 | 133 | 134 | 130 | 75.9 | 64.9 | 61.5 | 49.6 | 78.3 | 66.3 | 103 | 113 | 146 | 142 | 131 | 84.3 | 61.4 | 60.4 | 59.1 |
| NC[C@H](O)c1ccc(O)c(O)c1 | 115 | 117 | 119 | 104 | 120 | 104 | 90.7 | 85.7 | 97.7 | 86.9 | 72.4 | 96.7 | 86.8 | 112 | 95.7 | 105 | 91 | 87.3 | 91.2 | 99.2 | 97.5 | 78 | 93.2 | 90.3 | 99 | 91 | 88.1 | 85.4 | 86.6 | 93.4 | 83.3 | 88.6 | 87.7 |
| COc1cc2c(cc1OC)CN(CCc1ccc(NC(=O)c3cccc4c(=O)c5cccc(OC)c5[nH]c34)cc1)CC2 | 97.2 | 96.8 | 114 | 121 | 122 | 121 | 109 | 45 | 29.8 | 16.8 | 11.3 | 123 | 112 | 127 | 118 | 119 | 116 | 122 | 112 | 62.8 | 23.7 | 14.1 | 112 | 114 | 127 | 113 | 130 | 130 | 133 | 133 | 52.3 | 35.2 | 24.2 |
